Data from publication PMC3792642 (Acta Crystallographica Section D: Biological Crystallography, 2013).
Peptide text beside a SMILES is read from it.

System: MtbDsbA catalytic Cys89 to Ala mutant
Type: binding, Mycobacterium tuberculosis H37Rv
Details: ITC, under the conditions tested

CC(=O)N[C@@H](Cc1ccc(O)cc1)C(=O)N[C@H](C(=O)N1CCC[C@H]1C(=O)N[C@@H](CO)C(=O)N[C@@H](CS)C(=O)N[C@@H](CC(N)=O)C(=O)N[C@H](C(N)=O)C(C)C)C(C)C [YVPSCNV] (Ac-YVPSCNV-NH2)
Binding of VKOR peptide to the MtbDsbA catalytic Cys89 to Ala mutant: abolished binding
